Three compounds from ChEMBL document CHEMBL3526141, “Characterization of human liver enzymes involved in the biotransformation of boceprevir, a hepatitis C virus protease inhibitor” (Drug Metab Dispos, 2011) can be followed below.

What is called IC50 is the concentration at which inhibition is half-maximal. In general, Vmax refers to the top rate of the reaction or transport when substrate is in excess.

Series [1] relates to Liver cytosol. The experiment in a line: Drug metabolism in human liver cytosol treated with 20 uM [14C]boceprevir assessed as IC50 for AKR inhibitor ibuprofen-mediated metabolite formation after 60 mins by LC-MS/MS/FSA method. Format: ADME, tissue-based. The settings on record: 1 h.
The target in a further series is T1, Cytochrome P450 4F3 (Homo sapiens, UniProt Q08477).
T1 sequence (Q08477 whole entry): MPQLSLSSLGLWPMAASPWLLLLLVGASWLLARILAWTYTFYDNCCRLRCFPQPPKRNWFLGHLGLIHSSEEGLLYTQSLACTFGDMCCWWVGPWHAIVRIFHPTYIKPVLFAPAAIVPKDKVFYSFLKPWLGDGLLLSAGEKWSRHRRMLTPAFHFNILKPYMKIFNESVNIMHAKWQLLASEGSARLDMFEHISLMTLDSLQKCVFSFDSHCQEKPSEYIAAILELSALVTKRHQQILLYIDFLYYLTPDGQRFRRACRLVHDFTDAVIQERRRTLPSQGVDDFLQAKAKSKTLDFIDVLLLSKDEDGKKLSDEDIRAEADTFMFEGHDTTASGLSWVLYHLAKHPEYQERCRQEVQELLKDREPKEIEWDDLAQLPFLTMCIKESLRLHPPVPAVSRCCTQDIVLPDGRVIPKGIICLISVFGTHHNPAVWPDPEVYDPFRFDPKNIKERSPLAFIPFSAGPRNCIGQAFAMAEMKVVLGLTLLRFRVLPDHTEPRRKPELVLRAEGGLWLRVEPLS
The experiment in a line: Drug metabolism assessed as human CYP4F3A-mediated compound formation from 5 uM [14C]boceprevir after 120 mins by LC-MS/FSA method relative to total [14C]boceprevir. The class given is ADME. The note with it: recombinant enzyme, 2 h.

Series [2] has as its system Liver cytosol. The experiment in a line: Drug metabolism in human liver cytosol at 20 uM assessed as (1R,2S,5S)-N-((2R,3R)-4-amino-1-cyclobutyl-3-hydroxy-4-oxobutan-2-yl)-3-((S)-2-(3-tert-butylureido)-3,3-dimethylbutanoyl)-6,6-dimethyl-3-azabicyclo[3.1.0]hexane-2-carboxamide formation in presence of BNPP by LC-MS/MS/FSA method. Format: ADME.
Series [3] has as its system Liver cytosol. The experiment in a line: Drug metabolism in human liver cytosol assessed as (1R,2S,5S)-N-((2R,3R)-4-amino-1-cyclobutyl-3-hydroxy-4-oxobutan-2-yl)-3-((S)-2-(3-tert-butylureido)-3,3-dimethylbutanoyl)-6,6-dimethyl-3-azabicyclo[3.1.0]hexane-2-carboxamide formation per mg protein after 60 mins by LC-MS/MS/FSA method. The note with it: 1 h. The class given is ADME, tissue-based.

The nature of series [4]: Drug excretion in human urine. The arrangement: dosed compound name [14C]boceprevir. The class given is ADME.
Series [5] in a line: Drug excretion in human feces assessed as carbonyl reduction pathway related metabolites level. The arrangement: dosed compound name [14C]boceprevir. The class given is ADME.
The nature of series [6]: Drug metabolism in human liver S9 fraction at 20 uM assessed as (1R,2S,5S)-N-((2S,3R)-4-amino-1-cyclobutyl-3-hydroxy-4-oxobutan-2-yl)-3-((S)-2-(3-tert-butylureido)-3,3-dimethylbutanoyl)-6,6-dimethyl-3-azabicyclo[3.1.0]hexane-2-carboxamide formation in presence of pargyline by LC-MS/MS/FSA method. The class given is ADME, subcellular. The settings on record: s9, 20 µM.
A short description of series [7]: Drug metabolism in human liver S9 fraction at 20 uM assessed as (1R,2S,5S)-N-((2S,3R)-4-amino-1-cyclobutyl-3-hydroxy-4-oxobutan-2-yl)-3-((S)-2-(3-tert-butylureido)-3,3-dimethylbutanoyl)-6,6-dimethyl-3-azabicyclo[3.1.0]hexane-2-carboxamide formation in presence of mefenamic acid by LC-MS/MS/FSA method. Format: ADME, subcellular. The note with it: s9, 20 µM.
A short description of series [8]: Drug metabolism in human liver S9 fraction at 20 uM assessed as (1R,2S,5S)-N-((2S,3R)-4-amino-1-cyclobutyl-3-hydroxy-4-oxobutan-2-yl)-3-((S)-2-(3-tert-butylureido)-3,3-dimethylbutanoyl)-6,6-dimethyl-3-azabicyclo[3.1.0]hexane-2-carboxamide formation in presence of BNPP by LC-MS/MS/FSA method. Format: ADME, subcellular. The note with it: s9, 20 µM.
The subject of series [9] is Liver cytosol. The experiment in a line: Drug metabolism in human liver cytosol at 20 uM assessed as (1R,2S,5S)-N-((2S,3R)-4-amino-1-cyclobutyl-3-hydroxy-4-oxobutan-2-yl)-3-((S)-2-(3-tert-butylureido)-3,3-dimethylbutanoyl)-6,6-dimethyl-3-azabicyclo[3.1.0]hexane-2-carboxamide formation in presence of quercetin by LC-MS/MS/FSA method. The class given is ADME.
In series [10] the test system is Liver cytosol. The experiment in a line: Drug metabolism in human liver cytosol at 20 uM assessed as (1R,2S,5S)-N-((2S,3R)-4-amino-1-cyclobutyl-3-hydroxy-4-oxobutan-2-yl)-3-((S)-2-(3-tert-butylureido)-3,3-dimethylbutanoyl)-6,6-dimethyl-3-azabicyclo[3.1.0]hexane-2-carboxamide formation at 20 uM after 60 mins in presence of AKR inhibitor ibuprofen by LC-MS/MS/FSA method. Format: ADME. The note with it: 1 h.

The target of another series is T2, Cytochrome P450 2J2 (Homo sapiens, UniProt P51589).
T2 sequence (P51589 whole entry): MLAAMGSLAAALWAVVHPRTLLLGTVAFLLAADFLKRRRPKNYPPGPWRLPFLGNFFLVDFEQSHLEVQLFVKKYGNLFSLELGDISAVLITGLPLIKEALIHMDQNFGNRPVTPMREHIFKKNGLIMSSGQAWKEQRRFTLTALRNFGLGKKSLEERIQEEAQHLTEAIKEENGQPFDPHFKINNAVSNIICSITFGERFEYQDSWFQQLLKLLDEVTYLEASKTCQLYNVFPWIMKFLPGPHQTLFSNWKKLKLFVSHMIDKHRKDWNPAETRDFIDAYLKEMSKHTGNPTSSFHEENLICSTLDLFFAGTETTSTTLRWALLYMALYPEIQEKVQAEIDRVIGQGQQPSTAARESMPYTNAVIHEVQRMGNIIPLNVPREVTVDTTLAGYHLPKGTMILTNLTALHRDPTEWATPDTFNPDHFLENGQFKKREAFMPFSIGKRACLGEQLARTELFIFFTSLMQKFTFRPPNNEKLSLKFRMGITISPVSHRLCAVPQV
The experiment in a line: Drug metabolism assessed as human CYP2J2-mediated compound formation from 5 to 20 uM [14C]boceprevir after 120 mins by LC-MS/FSA method relative to total [14C]boceprevir. Format: ADME. The settings on record: recombinant enzyme, 2 h.

A further series deals with T3, Cytochrome P450 4F12 (Homo sapiens, UniProt Q9HCS2).
T3 sequence (Q9HCS2 whole entry): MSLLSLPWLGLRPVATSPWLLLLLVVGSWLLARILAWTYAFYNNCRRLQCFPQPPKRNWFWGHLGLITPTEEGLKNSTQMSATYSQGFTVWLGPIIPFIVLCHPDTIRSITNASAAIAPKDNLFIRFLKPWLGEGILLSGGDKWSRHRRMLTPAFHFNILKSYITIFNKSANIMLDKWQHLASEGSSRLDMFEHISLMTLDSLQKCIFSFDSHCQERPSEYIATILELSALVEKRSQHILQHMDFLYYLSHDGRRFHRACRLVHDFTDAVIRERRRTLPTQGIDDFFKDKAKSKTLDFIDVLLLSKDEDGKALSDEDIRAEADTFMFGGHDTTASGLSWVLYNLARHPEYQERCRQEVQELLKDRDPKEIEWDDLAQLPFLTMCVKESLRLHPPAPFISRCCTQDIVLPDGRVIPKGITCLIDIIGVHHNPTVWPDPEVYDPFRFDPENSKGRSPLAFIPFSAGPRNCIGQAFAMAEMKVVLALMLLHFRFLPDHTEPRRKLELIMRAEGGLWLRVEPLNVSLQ
The experiment in a line: Drug metabolism assessed as human CYP4F12-mediated compound formation from 5 to 20 uM [14C]boceprevir after 120 mins by LC-MS/FSA method relative to total [14C]boceprevir. Format: ADME. The settings on record: recombinant enzyme, 2 h.

The structures appear in SMILES notation.

For the compound `CC(C)(C)NC(=O)N[C@H](C(=O)N1C[C@H]2[C@@H]([C@H]1C(=O)N[C@@H](CC1CCC1)[C@@H](O)C(N)=O)C2(C)C)C(C)(C)C`, the IC50 in the series with Liver cytosol [1] worked out at 412 µM. In addition, at Cytochrome P450 4F3, the Compound recovery is 1.78%.
As for `CC(C)(C)NC(=O)N[C@H](C(=O)N1C[C@H]2[C@@H]([C@H]1C(=O)N[C@H](CC1CCC1)C(=O)C(N)=O)C2(C)C)C(C)(C)C`, the Compound recovery entry in the series with Liver cytosol [2] was “metabolite_not_detected”; at Cytochrome P450 4F3 it was 34.35%. For the same compound, the Vmax in the series with Liver cytosol [3] was 0.846 pmol/min.
Regarding `CC(C)(C)NC(=O)N[C@H](C(=O)N1C[C@H]2[C@@H]([C@H]1C(=O)NC(CC1CCC1)C(=O)C(N)=O)C2(C)C)C(C)(C)C` (stereo partly specified) [BOCEPREVIR], the Compound recovery entry in the series with Liver cytosol [2] is on record as “metabolite_not_detected”; in series [6], “metabolite_detected”; in series [7], “metabolite_not_detected”; in series [8], “metabolite_not_detected”; in the series with Liver cytosol [9], “metabolite_not_detected”; in the series with Liver cytosol [10] it was “metabolite_not_detected”. The Compound recovery entry at Cytochrome P450 2J2 and at Cytochrome P450 4F12 was “metabolite_not_detected” in each case. In addition, the Radiolabel recovery was 9.3% in series [4] and 22% in series [5]. Besides, in the series on Liver cytosol [1], the half-maximal inhibitory concentration (IC50) was found to be 412 µM.
